Earlier results on four molecules are cited in PMC8513935.

The nature of series [1]: experimental, compiled by the authors from the literature (the ESI cites the sources).
Series [2] is described as follows: log P octanol/water from commercial databases, averaged (the ESI). The conditions noted are these: Octanol (wet), 25 C.
Series [3] in a line: derived by the authors as gas->solvent minus gas->water (a hypothetical dry solvent; the ESI), not a two-phase measurement.

Structures are written as SMILES.

In the case of `Oc1ccccc1`, the log K of transfer, gas to solvent was 5.46 log10 K in series [1] (1,2-Dichloroethane, 25 C); 5.22 log10 K in series [1] (Benzene, 25 C); 4.55 log10 K in series [1] (CCl4, 25 C); 5.1 log10 K in series [1] (Chlorobenzene, 25 C); 5.17 log10 K in series [1] (Chloroform, 25 C); 4.03 log10 K in series [1] (Cyclohexane, 25 C). Further, the log K of transfer, gas to solvent in series [1] (Dichloromethane, 25 C) is 5.49 log10 K; in series [1] (Hexadecane, 25 C), 3.76 log10 K; in series [1] (Hexane, 25 C) it was 3.67 log10 K; in series [1] (Octan-1-ol, 25 C) it was 5.68 log10 K; in series [1] (Perfluoroalkane, 25 C), 2.23 log10 K; in series [1] (Toluene, 25 C), 5.08 log10 K. In series [1] (Water, 25 C), the log K of transfer, gas to solvent is 4.85 log10 K. The log K of transfer, water to solvent was 1.5 log10 K in series [2]; 0.61 log10 K in series [3] (1,2-Dichloroethane, 25 C); 0.37 log10 K in series [3] (Benzene, 25 C); -0.3 log10 K in series [3] (CCl4, 25 C); 0.25 log10 K in series [3] (Chlorobenzene, 25 C); 0.32 log10 K in series [3] (Chloroform, 25 C). The log K of transfer, water to solvent in series [3] (Cyclohexane, 25 C) was -0.813 log10 K; in series [3] (Dichloromethane, 25 C), 0.64 log10 K; in series [3] (Hexadecane, 25 C) it was -1.08 log10 K; in series [3] (Hexane, 25 C) it was -1.18 log10 K; in series [3] (Octan-1-ol(dry), 25 C), 0.83 log10 K; in series [3] (Perfluoroalkane, 25 C) it was -2.62 log10 K. Also, the log K of transfer, water to solvent in series [3] (Toluene, 25 C) is 0.23 log10 K.

Regarding `CCCC(C)=O`, the log K of transfer, gas to solvent was 3.77 log10 K in series [1] (Benzene, 25 C); 3.52 log10 K in series [1] (CCl4, 25 C); 3.87 log10 K in series [1] (Chlorobenzene, 25 C); 2.98 log10 K in series [1] (Cyclohexane, 25 C); 2.75 log10 K in series [1] (Hexadecane, 25 C); 3.58 log10 K in series [1] (Methanol, 25 C). Also, the log K of transfer, gas to solvent was 3.19 log10 K in series [1] (Octan-1-ol, 25 C); 3.68 log10 K in series [1] (Toluene, 25 C); 2.58 log10 K in series [1] (Water, 25 C). The log K of transfer, water to solvent in series [2] is 0.84 log10 K; in series [3] (Benzene, 25 C) it was 1.19 log10 K; in series [3] (CCl4, 25 C), 0.94 log10 K; in series [3] (Chlorobenzene, 25 C), 1.29 log10 K; in series [3] (Cyclohexane, 25 C) it was 0.4 log10 K; in series [3] (Hexadecane, 25 C) it was 0.175 log10 K. Besides, the log K of transfer, water to solvent in series [3] (Methanol, 25 C) is 0.999 log10 K; in series [3] (Octan-1-ol(dry), 25 C), 0.61 log10 K; in series [3] (Toluene, 25 C) it was 1.1 log10 K.

Turning to `CCC(CC)(CC)CC`, the log K of transfer, gas to solvent in series [1] (Hexadecane, 25 C) is 4.01 log10 K; in series [1] (Hexane, 25 C), 4.31 log10 K; in series [1] (Methanol, 25 C), 3.15 log10 K; in series [1] (Water, 25 C), -1.63 log10 K. Also, the log K of transfer, water to solvent was 5.19 log10 K in series [2]; 5.64 log10 K in series [3] (Hexadecane, 25 C); 5.94 log10 K in series [3] (Hexane, 25 C); 4.78 log10 K in series [3] (Methanol, 25 C).

In the case of `CC(C)(C)Cl`, the log K of transfer, gas to solvent is 2.62 log10 K in series [1] (1,2-Dichloroethane, 25 C); 2.16 log10 K in series [1] (2-Methylpropan-2-ol, 25 C); 2.17 log10 K in series [1] (Butan-1-ol, 25 C); 2.68 log10 K in series [1] (CCl4, 25 C); 2.61 log10 K in series [1] (Chlorobenzene, 25 C); 2.66 log10 K in series [1] (Cyclohexanone, 25 C). For the same molecule, the log K of transfer, gas to solvent in series [1] (Diethyl Ether, 25 C) is 2.48 log10 K; in series [1] (Hexadecane, 25 C), 2.27 log10 K; in series [1] (Hexane, 25 C) it was 2.51 log10 K; in series [1] (Propan-2-ol, 25 C), 2.05 log10 K; in series [1] (Tetrahydrofuran, 25 C) it was 2.5 log10 K; in series [1] (Water, 25 C) it was -0.8 log10 K. The log K of transfer, water to solvent in series [2] is 2.58 log10 K; in series [3] (1,2-Dichloroethane, 25 C), 3.42 log10 K; in series [3] (2-Methylpropan-2-ol, 25 C), 2.96 log10 K; in series [3] (Butan-1-ol, 25 C), 2.97 log10 K; in series [3] (CCl4, 25 C), 3.48 log10 K; in series [3] (Chlorobenzene, 25 C), 3.41 log10 K. For the same molecule, the log K of transfer, water to solvent in series [3] (Cyclohexanone, 25 C) was 3.46 log10 K; in series [3] (Diethyl Ether, 25 C), 3.28 log10 K; in series [3] (Hexadecane, 25 C), 3.07 log10 K; in series [3] (Hexane, 25 C), 3.31 log10 K; in series [3] (Propan-2-ol, 25 C) it was 2.85 log10 K; in series [3] (Tetrahydrofuran, 25 C), 3.3 log10 K.
